Laboratory results from US9138437B2, “Pyrimidine substituted purine compounds as kinase (S) inhibitors” (VERASTEM, INC., priority 2009, dated 2015).
Converted amounts (≈) assume the structure as drawn. Like-named read-outs stand apart in the source and are kept apart here.

How the values were obtained:
in vitro = details: human, pH 7.4; for half-life: microsomes
Protocol: Verapamil, purchased from Sigma-Aldrich, is used as a reference standard in the assay. HLM are purchased from Xeno Tech (20 mg/mL in 250 mM sucrose solution). A 100 mM stock solution of potassium phosphate buffer is pre-prepared by combining 80 mL of 1M K2HPO4 and 20 mL of 1 M KH2PO4 in 900 mL of water (pH adjusted to 7.4 using diluted HCl) and stored at room temperature. K2HPO4.3H20 and KH2PO4 are obtained from Sigma Aldrich and the NADPH Regeneration System Solutions A and B from Gentest. The stop solution used to quench the reaction is a pre-prepared mixture of acetonitrile and DMSO (80:20) and is stored at 4° C. All solvents used are HPLC grade and the water used during the stock solution preparation and during LC-MS analysis is deionised using a Milli-Q system.
8 μL of the compound mix is then added to 72 μL of a pre-prepared incubation mix made up of water (2250 μL), 100 mM potassium phosphate buffer (2900 μL), NADPH Regeneration System Solution B (58 μL), NADPH Regeneration System Solution A (290 μL) and HLM (250 μL). The resulting reaction mixture (final compound concentration of 5 μM) is then incubated at 37° C. in a B. Braun Certomat H incubator after which a 50 μL aliquot is dispensed to a well on a separate plate well containing 100 μL of Stop solution. […] Each test compound is sampled multiple times and incubated for a series of time points (5, 15, 30, 45 and 60 min). Remaining compound concentration is determined by LC-MS (ABI Qtrap 3200) and comparison to a reference solution of known concentration. Stability is then expressed as a half-life in minutes (t½).

physchem = details: pH 7, aqueous buffer, kinetic from dmso stock
Protocol: (§1) Compound solubility is determined in a high-throughput kinetic solubility profiling method using a 96-well format. Compound solubility is assessed using a UV/Visible Microplate Spectrophotometer (Molecular Devices SpectraMax Plus384). Vorinostat (SAHA) and Nicardipine, purchased from Sigma, are used as reference standards.
(§2) The mixture is then shaken at 600 rpm for 1.5 h and allowed to stand at room temperature for 2 h. […] The resulting supernatant (80 μL) is transferred to the UV-analysis plate and diluted with DMSO (20 μL). The samples are quantified using calibration stocks of the respective compound made in phosphate buffer/DMSO (80:20).

[1] = High throughput solubility assay (kinetic, UV); details: pH 7
Protocol: as §1, §2

## CCC(C)n1c(Br)nc2c(-c3cnc(N)nc3)nc(N3CCOCC3)nc21 (stereo not shown) [Cmpd A]
In vitro
  half-life: > 60 min
As drug candidate
  solubility, assessment in words: low solubility
physchem
  solubility: 44 µM (≈ 19.1 µg/mL)

## CC(C)n1c(Br)nc2c(-c3cnc(N)nc3)nc(N3CCOCC3)nc21 [Cmpd B]
In vitro; liver microsomes
  half-life at 5 μM: > 60 min
[1]
  solubility, assessment in words: low solubility
physchem
  solubility: 18 µM (≈ 7.55 µg/mL)

## CCc1nc2c(-c3cnc(N)nc3)nc(N3CCOCC3)nc2n1C(C)C [Cmpd C]
In vitro
  half-life: 36 min
As drug candidate
  solubility, assessment in words: acceptable
physchem
  solubility: > 250 µM

## CCC(C)n1c(C)nc2c(-c3cnc(N)nc3)nc(N3CCOCC3)nc21 (stereo not shown) [Cmpd D]
In vitro
  half-life: 26 min
As drug candidate
  solubility, assessment in words: acceptable
physchem
  solubility: > 250 µM

## CCC(C)n1cnc2c(-c3cnc(N)nc3)nc(N3CCOCC3)nc21 (stereo not shown) [Cmpd E]
In vitro
  half-life: > 60 min
As drug candidate
  solubility, assessment in words: low solubility
physchem
  solubility: 35 µM (≈ 12.4 µg/mL)

## Cc1nc2c(-c3cnc(N)nc3)nc(N3CCOCC3)nc2n1C(C)C [Cmpd of the invention, 5-(9-isopropyl-8-methyl-2-morpholin-4-yl-9H-purin-6-yl)-pyrimidin-2-ylamine]
pH 7
  solubility, assessment in words: acceptable
